Data on four compounds can be found in patent US4501744A, “Substituted-aza-cytosine compounds and anti-viral uses thereof” (ens BIO LOGICALS Inc., priority 1983, dated 1985).

One data set deals with cytomegalovirus (CMV). Briefly: CMV plaque (microplaque/ELISA) assay in human fetal fibroblast (lung) HFF cells. It counts as cell-based. The settings on record: at a dosage level non-toxic to mammalian cells. The protocol: The compounds of example 3, (5-aza-C*) was tested in vitro for activity against cytomegalovirus, CMV, in mammalian cells. Human fetal fibroblast (lung) HFF cells were used, in generally standard viral plaque titration methods.
Human fetal fibroblast (lung) HFF cells were used, in generally standard viral plaque titration methods. The cells were grown and maintained in Basal Medium Eagle (BME) supplemented with 0.112% sodium bicarbonate, 2 mM L-glutamine, 2 mg % neomycin and 20% (vol/vol) calf serum.
A viral plaque titration method (Roizman & Roane, 1961) was used to determine the virus titre of the CMV. 35 mm tissue culture plates were seeded with HFF 36 P5 and grown to 50-70% monolayer. […]
The cells were incubated for 72 hours at 37° C. in 5% carbon dioxide atmosphere. At 75 hours, the number of CMV infected foci (microplaques) was quantitated using enzyme linked immunosorbent assay (ELISA) using as an enzyme tag horseradish peroxidase and DAB substrate so as to stain the infected foci with a brown precipitate. […]
CMV-positive human serum was diluted 1:10 with PBS, and 0.2 ml of the diluted serum was put in each plate and the plate shaken for 30 minutes. […] Plaques were counted, and numbers of plaques per microscopic field determined.
The reading of the CMV assay was done by comparing no-drug controls to the drug treated plates. […]
(An ELISA detects its analyte on a solid surface through an enzyme-linked reagent.)

For data set [1], the system named is human fetal fibroblasts / mammalian cells. Nature of the data set: Toxicity to host cells. It counts as cell-based. The settings on record: at the dosage level active against HSV and CMV.
A short description of the next data set: Toxicity to host cells. It counts as cell-based, human. The note with it: in the HSV test; human fetal fibroblasts; read-out: concentration up to which no evidence of toxicity was shown.
The test system of data set [2] is herpes simplex virus (HSV). Briefly: Plaque titration: reduction of plaque size and plaque number of herpes simplex virus in human fetal fibroblasts. It counts as cell-based. The note with it: for IC25 / IC50 / IC75: Fibroblast, human fetal fibroblasts, 48 h. The protocol: Herpes simplex virus (HSV) strains were grown and titrated at 36° C. in human fetal fibroblasts derived from fetal tissues, and used for virus work before the tenth passage. Cells were grown and maintained in basal medium Eagle (BME; Auto-Pow, Flow Laboratories) supplemented with 0.112% sodium bicarbonate, 2 mM 1-glutanine, 2 mg neomycin per 100 ml and 5-20% calf serum. 5% BME, as described hereafter, indicates medium containing 5 ml of calf serum in a total volume of 100 ml.
The titer of the HSV strains is determined by a plaque titration method (Roizman & Roane, "Virology", 15, 75-79, 1961). Tissue culture dishes are seeded with cells and used for assays when approximately 75% monolayer. Volumes (0.2 ml) of logarithmic dilutions of the strain are inoculated onto each of two tissue culture dishes, and adsorbed for 1 hr. with intermittent shaking, the inoculum removed, and 2 ml of 5% BME containing 0.5% human immune serum globulin added. After a 48 hour incubation period at 36° C. in a 5% CO2 atmosphere, the overlay medium is removed and the cell sheets stained with a 0.05% aqueous crystal violet solution. The number of plaques is counted, the duplicates averaged, and the number of plaque-forming units calculated.
The compounds are tested for activity against the herpes simplex strains using a stock solution of each compound freshly prepared by dissolving 1.2 mg in BME. Appropriate dilution of each compound are made in 5% BME containing 0.5% human immune serum globulin just before usage.
Tissue culture dishes (35 by 10 mm) with approximately 75% cell monolayer are inoculated with approximately 50 plaque-forming units of HSV per 0.2 ml, and the virus adsorbed for 1 hour, with intermittent shaking. After removal of the inoculum, 2 ml of 5% BME with 0.5% immune globulin and three-fold dilutions of the appropriate drug are added. One set of dishes receives no drug and is used as a control. After a 48-hour incubation period, at 36° C. in a 5% CO2 atmosphere, the overlay medium is removed, the cells stained as described above, and plaques counted. The counts of replicate plates are averaged, and the number of plaques emerging in the presence of each drug dilution is calculated. The reduction in plaque size caused by the concentration of the drug, as compared with the relevant control, is also measured, visually. […] A reduction in the area of the growing plaque indicates inhibition of plaque growth, i.e. inhibition of viral reproduction, caused by the drug.

Data set [3] deals with herpes simplex virus (HSV). The note with it: disclosed in U.S. Pat. No. 4,347,360; cited from earlier work.
Where [4] appears, read: read-out: concentration reducing plaque numbers by 25%.
The mark [5] stands for this setting: read-out: concentration reducing plaque numbers by 50%.
Where [6] appears, read: read-out: concentration reducing plaque size by 25%.
Where [7] appears, read: read-out: concentration reducing plaque size by 50%.

≈ marks a conversion by molar mass, not a printed value. Where two headings read alike, the source gives them in different places.

As to `Nc1ncn(COC(CO)CO)c(=O)n1` [5-aza-C*, 5-aza-1-[[1-hydroxymethyl-[2-hydroxy]-ethoxy]methyl]cytosine], the “activity against CMV (in words)” value in the data set on cytomegalovirus (CMV) is on record as “active”. Also, in data set [1], the “toxicity to mammalian cells (in words)” value is “non-toxic to mammalian cells”. Besides, the MNTC at 48 h in the data set “Toxicity to host cells” is over 304 µg/mL. For the same compound, the entries for the “activity against HSV (in words)” value in data set [2] and in data set [2] (listed as 5-aza-1-[[1-hydroxymethyl(2-hydroxy)ethoxy]methyl]cytosine) were “high activity against the HSV” and “active against herpes simplex virus HSV”, respectively. Besides, the results for the IC25 in data set [2] (setting [4]) and in data set [2] (setting [6]) were 8 µg/mL (≈ 37 µM) and 5 µg/mL (≈ 23.1 µM), respectively. Besides, the IC50 in data set [2] (setting [5]) and in data set [2] (setting [7]) was 30 µg/mL (≈ 139 µM) in each case. In addition, the IC75 was found to be 140 µg/mL (≈ 648 µM) in data set [2] (read-out: concentration reducing plaque numbers by 75%) and 110 µg/mL (≈ 509 µM) in data set [2] (read-out: concentration reducing plaque size by 75%).

With `O=c1[nH]c(=O)n(COC(COCc2ccccc2)COCc2ccccc2)cc1F` [5F-benzyl-U*, 1-[[2-benzyloxy-1-(benzyloxymethyl)ethoxy]methyl]-5-fluorouracil], the MNTC at 48 h in “Toxicity to host cells” is over 110 µg/mL. In addition, the “activity against HSV (in words)” value in data set [2] is on record as “showed activity against HSV”. In addition, the IC25 is 70 µg/mL (≈ 169 µM) in data set [2] (setting [4]) and 10 µg/mL (≈ 24.1 µM) in data set [2] (setting [6]). Moreover, the IC50 in data set [2] (setting [5]) came out at 110 µg/mL (≈ 265 µM); in data set [2] (setting [7]), 50 µg/mL (≈ 121 µM).

On to `Nc1ncnc2c1ncn2COC(CO)CO` [9-[[2-hydroxy-1-(hydroxymethyl)ethoxy]-methyl]adenine], for which the “activity against herpes simplex virus (in words)” value in data set [3] is reported as “active against herpes simplex virus”.

Take `Nc1ccn(COC(COCc2ccccc2)COCc2ccccc2)c(=O)n1` [dibenzyl-C*, 1-[[2-benzyloxy-1-(benzyloxymethyl)]ethoxymethyl]cytosine]: the “activity against HSV (in words)” value in data set [2] is listed as “exhibited activity against HSV, but to a lesser extent”.
